Source: BindingDB's records for doi:10.1021/jm020093q (Brown University, 2002)

Assay: Concentration required for 50% Inhibition of activity against Yersinia Protein-tyrosine phosphatase

Row | SMILES | IC50 [µM]
1 | O=C(O)C(=O)c1ccc(OCc2cccc(COc3ccc(C(=O)C(=O)O)cc3)c2)cc1 [{4-[3-(4-Oxalyl-phenoxymethyl)-benzyloxy]-phenyl}-oxo-acetic acid] | 4.1
2 | O=C(O)C(=O)c1ccc(OCc2cc(COc3ccc(C(=O)C(=O)O)cc3)cc(COc3ccc(C(=O)C(=O)O)cc3)c2)cc1 [{4-[3,5-Bis-(4-oxalyl-phenoxymethyl)-benzyloxy]-phenyl}-oxo-acetic acid] | 1.7
3 | O=C(O)C(=O)c1ccc(OCc2ccccc2COc2ccc(C(=O)C(=O)O)cc2)cc1 [{4-[2-(4-Oxalyl-phenoxymethyl)-benzyloxy]-phenyl}-oxo-acetic acid] | 8.5
4 | O=C(O)C(=O)c1ccc(OCc2ccc(COc3ccc(C(=O)C(=O)O)cc3)cc2)cc1 [{4-[4-(4-Oxalyl-phenoxymethyl)-benzyloxy]-phenyl}-oxo-acetic acid] | 0.7
5 | O=C(O)C(=O)c1ccc(O)cc1 [(4-Hydroxy-phenyl)-oxo-acetic acid] | 200
